# Data as given in patent publication US9895390B2, “Methods and assays for combination treatment of cancer” (CHILDREN'S MEDICAL CENTER CORPORATION, priority 2012, dated 2018).
# Legend:
# Format in all cases: cell-based, human
# EZH2 and H3K27me3 = experiment: Western Blot for EZH2 and H3K27me3 on whole cell extracts; settings: 1 μM DZNep, 4 days
# Procedure: For Western blotting, 25 μg of protein extract per sample was denatured with heat and reducing agents, separated on a 4-12% acrylimide gel and transferred to nitrocellulose. Antibodies used for Western blotting were: EZH2 (Cell Signalling), β-actin (AbCAM) and H3K27me3 (Upstate).
# Whole cell extracts were made in RIPA buffer (0.5% Deoxycholate, 1% IGEPAL-CA630, 0.1% sodium dodecyl sulfate, 150 mM NaCL, 50 mM Tris-8.1), lysates were cleared by centrifugation, and protein concentrations were quantified with the Pierce BCA Protein Assay Kit (Thermo). For Western blotting, 25 μg of protein extract per sample was denatured with heat and reducing agents, separated on a 4-12% acrylimide gel (BioRad) and transferred to nitrocellulose (GE Healthcare). Antibodies used for Western blotting were: EZH2 (clone D2C9; Cell Signaling; 1:200), Histone H3 (polyclonal; AbCAM ab1791; 1:2000) and H3K27me3 (polyclonal; Millipore 07-449; 1:1000) all incubated overnight at 4° C. Secondary antibody, anti-rabbit-HRP (Santa Cruz sc-2313; 1:5,000), was incubated for 1 hour at room temperature. After washing, chemi-luminescence was visualized with Western Lightning Plus-ECL (PerkinElmer) and exposure onto KODAK BioMax XAR™ film.
# PC9 = experiment: Etoposide dose response curves in the presence of 5 μM cisplatin; settings: PC9 (sensitized), combination with DZNep
# Procedure: (§1) FIG. 25A is a Waterfall plot of cell line growth in 1 μM DZNep for 4 days compared to untreated cells, n=3-5 biological replicates, * indicates p<0.04, ** p<0.007. […] FIG. 25C is a pair of representative etoposide dose response curves performed in the presence of 5 μM cisplatin, the sensitized line PC9 (4.2-fold decrease, p<0.0001) and the protected line H23 (3.4-fold increase, p<0.0001) are shown.
# (§2) Cell lines were dissociated, counted and plated at 5000 cells per well in flat bottom opaque tissue culture treated 96 well plates (CytoOne). Edge wells were filled with PBS. The following day, 2× drug diluted in media was added to each well such that the well then contained 100 ul media with 1× drug concentration at the following doses: etoposide; 0, 0.1, 1, 3, 5, 7, 10, 50, 100, 500 μM, cisplatin; 0, 0.1, 1, 5, 10, 30, 70, 100, 500 μM, or doxorubicin; 0, 0.01, 0.1, 0.5, 1, 3, 5, 7, 10, 50 μM. After 4 days, CELLTITER-GLO™ (Promega) was added and luminescence was read on a BioTec plate reader to determine relative cell number in each well. Data were averaged for triplicate or quadruplicate technical replicates and normalized to the untreated wells. Results from three or four independent biological replicate experiments were input into GRAPHPAD PRISM™ software to extrapolate IC50 and s.e.m. of IC50 for a given cell line.
# H23 = experiment: as above; settings: H23 (protected), combination with DZNep
# Procedure: as §1, §2
structure (smiles),measurement,setting,value
"Nc1nccc2c1ncn2[C@@H]1C=C(CO)[C@@H](O)[C@H]1O [DZNep, 3-Deazaneplanocin A]",EZH2 protein abundance and H3K27me3 catalytic mark,EZH2 and H3K27me3,effectively reduced
same,decrease in etoposide IC50,PC9,4.2 fold
same,increase in etoposide IC50,H23,3.4 fold
